According to publication PMC9698483, “Berbamine Reduces Chloroquine-Induced Itch in Mice through Inhibition of MrgprX1” (International Journal of Molecular Sciences, 2022):
Values joined by “and” are separate entries in the source; they are usually repeats but may differ in a detail not shown here. Equal entries are not always repeated.

Experiments:
[1] = tested on: CQ-resistant strain of P. falciparum; set-up: method as in doi:10.1002/ddr.430300405; details: in vitro, compound alone; read-out: IC50 antimalaria effect, CQ-resistant strain; cited from earlier work
[2] = tested on: CQ-sensitive strain of P. falciparum; set-up: method as in doi:10.1002/ddr.430300405; details: in vitro; read-out: IC50 antimalaria effect, CQ-sensitive strain; cited from earlier work
[3] = tested on: ERK1/2 phosphorylation through MrgprA3; assay: Immunoblot of ERK1/2 phosphorylation in HEK293T cells expressing MrgprA3; type: cell-based, mouse; details: HEK-MrgprA3 cells, 30 μM BBM for 10 min prior to CQ
[4] = molecular target: T1, histamine H4 receptor (H4R) (Homo sapiens, UniProt Q9H3N8); assay: Histamine-induced activation of H4R in H4R-expressing HEK293T cells (calcium); type: cell-based; details: 30 μM compound, 10 min prior to 100 μM histamine
T1 construct: expressed in transfected cells; host or cells: HEK293T
T1 sequence (Q9H3N8 whole entry, species assumed): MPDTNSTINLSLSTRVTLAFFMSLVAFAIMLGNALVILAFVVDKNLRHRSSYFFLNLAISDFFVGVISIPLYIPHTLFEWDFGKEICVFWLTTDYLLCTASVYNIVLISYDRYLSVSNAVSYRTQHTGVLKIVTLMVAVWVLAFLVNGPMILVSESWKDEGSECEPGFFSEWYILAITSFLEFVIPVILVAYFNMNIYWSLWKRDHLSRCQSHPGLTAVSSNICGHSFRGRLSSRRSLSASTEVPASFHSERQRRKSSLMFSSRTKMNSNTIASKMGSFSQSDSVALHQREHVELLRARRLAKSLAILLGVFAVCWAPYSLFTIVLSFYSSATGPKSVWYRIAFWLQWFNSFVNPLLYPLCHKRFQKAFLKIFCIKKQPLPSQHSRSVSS
Protocol: (§1) To investigate the effect of berbamine on other pruritogenic GPCRs, we observed the effect of berbamine on histamine H1 receptor (H1R), histamine H4 receptor (H4R), MrgprC11, MrgprX4, PAR2, and TGR5.
(§2) Figure 3 Effects of berbamine on the activity of other pruritogenic GPCRs: (A,B) Effect of berbamine on histamine 1 receptor (H1R) and histamine 4 receptor (H4R). H1R- and H4R-expressing HEK293T cells were pretreated with 30 μM BBM for 10 min prior to 100 μM histamine treatment. […] (C) Effect of berbamine on PAR2. HT29 cells were pretreated with BBM for 10 min prior to 30 μM PAR2-AP treatment. […] (D) Effect of berbamine on MrgprC11. MrgprC11-expressing HEK293T cells were pretreated with BBM for 10 min prior to 100 μM […] treatment. (E) Effect of berbamine on MrgprX4. MrgprX4-expressing HEK293T cells were pretreated with BBM for 10 min prior to 80 μM DCA treatment. (F) Effect of berbamine on TGR5. TGR5 activity was measured using a YFP fluorescence quenching assay. CHO-K1 cells coexpressing TGR5 and a halide sensor YFP were pretreated with BBM and 80 μM DCA for 10 min prior to I^- treatment. Results were summarized as means ± S.E. (n = 6). NTC, nontransfected cells.
(§3) Intracellular calcium levels were measured using a Fluo-4 NW calcium assay kit (Invitrogen, Carlsbad, CA) as per the manufacturer’s protocol in HEK293T and HT29 cells. […]

[5] = tested on: histamine-induced itch; assay: Histamine-induced pruritus in mice (scratching bouts); type: in vivo, BALB/c mice; details: 30 mg/kg i.p.
Protocol: (§4) To investigate the antipruritic effect of berbamine, we observed the effect of berbamine on pruritogen-induced scratching behavior in BALB/c mice. Mice were transferred to clear cages and treated with berbamine intraperitoneally after a 30 min acclimatization period. Mouse behavior was recorded for 30 min right after the subcutaneous injection of pruritogens to the nape 30 min after berbamine treatment (Figure 7A). […] We further investigated the effect of berbamine on pruritus caused by other pruritogens.
(§5) Figure 7 Effect of berbamine on acute pruritogen-induced pruritus in mice: (A) Scheme of acute pruritogen-induced pruritus mouse model. […] Statistical significance of differences between each group and CQ group was assessed using one-way ANOVA with Tukey’s post hoc test. * p < 0.05, ** p < 0.01, *** p < 0.001. […] Statistical significance of differences was determined using Student’s t-test. […]
(§6) […] six-week-old BALB/c male mice were purchased from DBL (Chungcheong-do, Republic of Korea), and an additional 1 week was given for accommodation. […] After 30 min, pruritogen compounds (i.e., CQ, histamine, PAR2-AP, and DCA) were subcutaneously administered into the nape, and scratching bouts were recorded for 30 min. […] The total number of scratching bouts was counted by recording the number of scratching bouts in the recorded video over 30 min of observation time.

[6] = molecular target: T2, histamine H1 receptor (H1R) (Homo sapiens, UniProt P35367); assay: Histamine-induced activation of H1R in H1R-expressing HEK293T cells (calcium); type: cell-based; details: 30 μM compound, 10 min prior to 100 μM histamine
T2 construct: expressed in transfected cells; host or cells: HEK293T
T2 sequence (P35367 whole entry, species assumed): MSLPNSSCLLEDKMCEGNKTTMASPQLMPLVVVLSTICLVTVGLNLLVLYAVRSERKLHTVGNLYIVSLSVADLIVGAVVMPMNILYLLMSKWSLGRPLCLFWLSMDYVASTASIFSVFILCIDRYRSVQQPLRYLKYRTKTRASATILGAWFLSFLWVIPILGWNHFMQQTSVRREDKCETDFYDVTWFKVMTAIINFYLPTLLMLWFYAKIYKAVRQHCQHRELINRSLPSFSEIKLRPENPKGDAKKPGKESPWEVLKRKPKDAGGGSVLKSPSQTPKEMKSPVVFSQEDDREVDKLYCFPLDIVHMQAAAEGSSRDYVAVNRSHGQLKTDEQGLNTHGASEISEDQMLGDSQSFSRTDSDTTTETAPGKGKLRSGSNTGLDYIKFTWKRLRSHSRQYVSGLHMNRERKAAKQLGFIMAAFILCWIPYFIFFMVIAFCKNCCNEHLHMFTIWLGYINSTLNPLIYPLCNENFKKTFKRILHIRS
Protocol: as §1, §2, §3

[7] = molecular target: T3, MrgprX4 (Homo sapiens, UniProt Q96LA9); assay: DCA-induced activation of MrgprX4 in MrgprX4-expressing HEK293T cells (calcium); type: cell-based; details: 30 μM, 10 min prior to 80 μM DCA
T3 construct: expressed in transfected cells; host or cells: HEK293T
T3 sequence (Q96LA9 whole entry): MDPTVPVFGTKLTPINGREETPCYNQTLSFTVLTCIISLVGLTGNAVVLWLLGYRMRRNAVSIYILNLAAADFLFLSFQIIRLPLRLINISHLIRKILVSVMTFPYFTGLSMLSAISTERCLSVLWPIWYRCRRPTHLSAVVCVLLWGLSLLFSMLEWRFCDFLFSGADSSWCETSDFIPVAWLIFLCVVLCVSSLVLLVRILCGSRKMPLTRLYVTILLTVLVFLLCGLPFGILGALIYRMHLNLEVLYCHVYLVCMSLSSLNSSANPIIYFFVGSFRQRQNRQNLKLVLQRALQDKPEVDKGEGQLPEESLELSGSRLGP
Protocol: as §1, §2, §3

[8] = tested on: ERK1/2 phosphorylation through MrgprX1; assay: Immunoblot of ERK1/2 phosphorylation in HEK293T cells expressing MrgprX1; type: cell-based, human; details: HEK-MrgprX1 cells, 10 μM BBM for 10 min prior to CQ
[9] = tested on: HEK293T cells; assay: Ionomycin-induced increase in intracellular calcium levels in HEK293T cells; type: cell-based; details: 10 μM ionomycin, 10 min pretreatment
Protocol: To investigate whether berbamine and closantel affect calcium signaling pathways, we observed the effects of berbamine and closantel on CQ- and ionomycin-induced increases in intracellular calcium concentrations in HEK-MrgprX1 and HEK293T cells, respectively.
Figure 2 Effect of berbamine and closantel on CQ- and ionomycin-induced increases in intracellular calcium levels: (A,B) Intracellular calcium levels were measured using Fluo−4 NW in HEK293T cells expressing MrgprX1. The cells were pretreated with the indicated concentrations of berbamine (BBM) and closantel (CLS) for 10 min prior to treatment with 300 μM CQ. (C) Summary of dose-response (mean ± S.E., n = 6). (D,E) Intracellular calcium levels were increased with 10 μM ionomycin in HEK239T cells. The cells were pretreated with the indicated concentrations of BBM and CLS for 10 min before treatment with ionomycin. (F) Summary of dose–response (mean ± S.E., n = 6).
Intracellular calcium levels were measured using a Fluo-4 NW calcium assay kit (Invitrogen, Carlsbad, CA) as per the manufacturer’s protocol in HEK293T and HT29 cells. […] After 1 h of incubation, Fluo-4 fluorescence was recorded with a FLUOstar Omega microplate reader equipped with syringe pumps and custom Fluo-4 excitation/emission filters (485/538 nm). […]

[10] = tested on: CQ-induced pruritus; assay: CQ-induced pruritus mouse model (scratching bouts); type: in vivo, BALB/c mice; details: 30 mg/kg intraperitoneally, 30 min before s.c. CQ (400 µg/50 µL), 30 min recording
Protocol: as §4, §5, §6

Q: Which results are given for `COc1cc2c3cc1Oc1c(OC)c(OC)cc4c1[C@@H](Cc1ccc(O)c(c1)Oc1ccc(cc1)C[C@@H]3N(C)CC2)N(C)CC4` [berbamine]?
A: IC50 [1]: 359 ± 9 nM; IC50 [2]: 603 ± 47 nM; effect on CQ-induced ERK1/2 phosphorylation through MrgprA3 [3]: significantly reduced; effect on histamine-induced activation of H4R [4]: did not affect; effect on total scratching bouts induced by histamine [5]: no significant effect; effect on histamine-induced activation of H1R [6]: did not affect; effect on DCA-induced activation of MrgprX4 [7]: did not alter; effect on CQ-induced ERK1/2 phosphorylation [8]: significantly reduced; effect on ionomycin-induced increase in intracellular calcium levels [9]: no effect; attenuation of CQ-induced pruritus (total scratching bouts) [10]: 80% and ~ 80%
